Here are results for 2 compounds from article PMC3858267, “The Enhanced In Vivo Activity of the Combination of a MEK and a PI3K Inhibitor Correlates with [^18F]-FLT PET in Human Colorectal Cancer Xenograft Tumour-Bearing Mice” (PLoS ONE, 2013).

In data set [1] the test system is HCT116 human tumour xenografts. In words: [18F]-FLT PET tumour uptake in HCT116 xenografts. The class given is in vivo, mice. As to conditions: 1 mg/kg PD 0325901, 100 mg/kg GDC-0941, alone or in combination, p.o. once daily for 2 days. The procedure:
Before treatment and after 2 days of treatment as described above, mice bearing HCT116 human tumour xenografts (7–9 mice/group) were anaesthetised, cannulated via their tail vein and placed in the prone position on a custom-made heated bed, which held three mice at once, within a MOSAIC PET scanner (Philips, Eindhoven, NL). [^18F]-FLT was obtained from PETNET (PETNET, Nottingham, UK), and radioactivity levels were measured using a Capintec well counter (Capintec, NJ, USA). Approximately 10 MBq of [^18F]-FLT was administered intravenously and a 1 hour dynamic PET scan was performed, consisting of ten 1 minute, six 5 minute and two 10 minute time frames. Mice were recovered after scanning and continued to receive treatment for the remainder of the study. Data were analysed using Imalytics software (Philips, Aachen, Germany); a 3D region of interest was drawn around the tumour and the standardised uptake value (SUV) was calculated by dividing the tissue concentration (MBq/ml) by the injected dose (MBq)/g body weight. Mean SUV values were then plotted against time, and the area under the curve (AUC) and the percentage change in the area under the curve relative to the baseline scan was calculated.

Data set [2] is described as follows: Single dose PK: plasma and tumour tissue drug concentrations by HPLC in HCT116 xenograft-bearing mice. It is filed as in vivo. To be noted: for AUC: po; for AUC / GDC-0941 AUC Tumour / PD 0325901 AUC Tumour: over 24 hours, mean ± SD. The procedure:
(§1) Blood was collected into heparinised tubes, and plasma was separated and stored at −20°C until analysed. Tumours were removed, snap frozen in liquid nitrogen and stored at −80°C prior to PK and PD analyses, as described below.
For PK analyses, drug was extracted from 60 µl aliquots of samples by protein precipitation with 9 volumes of acetonitrile (MeCN). Samples were centrifuged at 3000g for 5 minutes at 4°C, and 500 µl of the supernatant evaporated to dryness under nitrogen gas at 30°C using a Zymark Evaporator (Caliper Life Sciences Limited, Cheshire, UK). Samples were reconstituted in 100 µl HPLC mobile phase consisting of 40% acetonitrile and 60% (v/v) 0.1% formic acid pH 4.0 (v/v), and 50 µl of the supernatant applied to a 10 cm Xterra Waters 186000436 C18 3.5 µm column (Waters, Hertfordshire, UK) fitted with an in line filter. Compounds were eluted with the above mobile phase at 1 ml/min using a Waters Millennium Chromatography system (Waters, Hertfordshire, UK). Analytes were detected by UV absorbance at 275 and 315 nm, at retention times of 6.8–7.3 and 3.9–4.3 minutes for PD 0325901 and GDC-0941, respectively. For analysis of drug in tumour tissue, tumours were homogenised in 3 volumes of PBS (w/v) and 50 µl aliquots extracted with 9 volumes of MeCN, and centrifuged, evaporated and analysed as described above.

Data set [3] concerns phospho-p44/42 MAPK (Thr202/Tyr204) (ERK1/2). In words: PD Western blot of HCT116 tumour lysates: ERK1/2 phosphorylation. The class given is in vivo, mice. The procedure:
as §1
For PD analyses, tumours (2 to 4∼2.5 mm^3 pieces) were disaggregated in 1 ml PhosphoSafe™ extraction reagent (Merck Chemicals Ltd, Nottingham, Nottinghamshire, UK) containing a protease inhibitor cocktail (Pierce, Thermo Scientific, Rockford, Illinois, USA) at the manufacturer's recommended dilution using a Medimachine™ (BD Biosciences, Oxford, UK), centrifuged, and the supernatant removed and analysed by Western blotting. Proteins were resolved on Novex® 4–12% (w/w) Tris-glycine gels (Invitrogen Ltd, Renfrew, Paisley, UK) and electrotransferred onto Hybond C nitrocellulose membrane (GE Healthcare Life Sciences, Hatfield, Hertfordshire, UK). Membranes were incubated with phospho-4EBP1 (Thr37/46) (#2855), phospho-p44/42 MAPK (Thr202/Tyr204) (#4370), phospho-Akt (Ser473) (#4060) or phospho-S6 ribosomal protein (Ser235/236) (#4858) monoclonal antibodies obtained from Cell Signalling Technology (New England BioLabs (UK) Ltd, Hitchin, Hertfordshire, UK). Antibody binding was detected by incubation with a HRP-conjugated goat anti-rabbit polyclonal antibody (Dako, Glastrop, Denmark). Blots were developed using Pierce ECL (enhanced chemiluminescence) western blotting substrate (Thermo Scientific, Rockford, Illinois, USA), or SuperSignal® West Dura extended duration substrate (Thermo Scientific, Rockford, Illinois, USA), and Kodak X-ray film (Genetic Research Instrumentation Ltd, Braintree, Essex, UK) on a MediPhot 937 film developer (Colenta, Weiner Neustadt, Austria), then digitally scanned.

The next data set concerns phospho-4EBP1 (Thr37/46). In words: PD Western blot of HCT116 tumour lysates: 4EBP1 phosphorylation. The class given is in vivo, mice. To be noted: 0.25–24 hours after single p.o. dose; 1 mg/kg PD 0325901, 100 mg/kg GDC-0941 or combination (combination compared to single agent PI3K inhibitor).
Data set [4] has as its system phospho-S6 ribosomal protein (Ser235/236). Nature of the data set: PD Western blot of HCT116 tumour lysates: S6 phosphorylation. It is filed as in vivo, mice. To be noted: 0.25–24 hours after single p.o. dose; 1 mg/kg PD 0325901, 100 mg/kg GDC-0941 or combination (combination compared to single agent PI3K inhibitor).
Another data set deals with phospho-Akt (Ser473). Nature of the data set: PD Western blot of HCT116 tumour lysates: AKT phosphorylation. It is filed as in vivo, mice. To be noted: 0.25–24 hours after single p.o. dose; 1 mg/kg PD 0325901, 100 mg/kg GDC-0941 or combination (combination compared to single agent PI3K inhibitor). On the procedure:
as §1
For PD analyses, tumours (2 to 4∼2.5 mm^3 pieces) were disaggregated in 1 ml PhosphoSafe™ extraction reagent (Merck Chemicals Ltd, Nottingham, Nottinghamshire, UK) containing a protease inhibitor cocktail (Pierce, Thermo Scientific, Rockford, Illinois, USA) at the manufacturer's recommended dilution using a Medimachine™ (BD Biosciences, Oxford, UK), centrifuged, and the supernatant removed and analysed by Western blotting. […] Antibody binding was detected by incubation with a HRP-conjugated goat anti-rabbit polyclonal antibody (Dako, Glastrop, Denmark).

Another data set relates to HCT116 cells. Further details: method as in PMID 22415236. As to conditions: previously determined; read-out: in vitro GI50; cited from earlier work.
Data set [5] has as its system HCT116 human tumour xenografts. In words: Anti-tumour activity (time to RTV3/RTV4) in HCT116 human tumour xenografts. The class given is in vivo, mice. To be noted: 1 mg/kg PD 0325901, 100 mg/kg GDC-0941, alone or in combination, p.o. once daily for 14 days. The procedure: Animal studies were all carried out using female athymic CD1 nude mice (Charles River, Kent, UK), implanted with HCT116 or HT29 xenografts (1×10^7 cells in 50 µl media injected subcutaneously into the right flank), maintained and handled in isolators under specific pathogen-free conditions.

Where [6] appears, read: single p.o. dose 10 mg/kg PD 0325901+10 mg/kg GDC-0941.

Read-outs that look alike come from different tables or passages of the source. Marks after values point to notes of the source that are not given here. Some results are limits rather than exact numbers.

For the compound `CS(=O)(=O)N1CCN(Cc2cc3nc(-c4cccc5[nH]ncc45)nc(N4CCOCC4)c3s2)CC1` [GDC-0941, 2-(1H-Indazol-4-yl)-6-(4-methanesulfonyl-piperazin-1-ylmethyl)-4-morpholin-4-yl-thieno[3,2-d]pyrimidine], the “decrease in tumour [18F]-FLT uptake (SUV AUC) after 2 days versus baseline” value in data set [1] is reported as “no significant difference”. The “increase in plasma AUC with 10-fold increment in dose” value in data set [2] (GDC-0941 100 versus 10 mg/kg) is 7 fold. Further, the “increase in tumour AUC following a 10-fold increase in dose” value in data set [2] (GDC-0941 100 versus 10 mg/kg) is listed as 15 fold. The AUC in data set [2] (mouse, plasma, 10 mg/kg, single p.o. dose 10 mg/kg GDC-0941 alone, read-out: GDC-0941 AUC Plasma (converted)) is 5.4 µM·h; in data set [2] (mouse, plasma, 10 mg/kg, single p.o. dose 10 mg/kg PD 0325901+10 mg/kg GDC-0941, read-out: GDC-0941 AUC Plasma (converted)), 6.33 µM·h; in data set [2] (mouse, plasma, 100 mg/kg, single p.o. dose 100 mg/kg GDC-0941 alone, read-out: GDC-0941 AUC Plasma (converted)) it was 39.4 µM·h; in data set [2] (mouse, plasma, single p.o. dose 1 mg/kg PD 0325901+10 mg/kg GDC-0941, read-out: GDC-0941 AUC Plasma (converted)), 6.55 µM·h; in data set [2] (mouse, plasma, single p.o. dose 1 mg/kg PD 0325901+100 mg/kg GDC-0941, read-out: GDC-0941 AUC Plasma (converted)), 22.6 µM·h; in data set [2] (mouse, plasma, single p.o. dose 10 mg/kg PD 0325901+100 mg/kg GDC-0941, read-out: GDC-0941 AUC Plasma (converted)), 58.8 µM·h. For the same compound, the “GDC-0941 AUC Tumour” value in data set [2] (single p.o. dose 1 mg/kg PD 0325901+10 mg/kg GDC-0941) is recorded as 396±144^j µM.min; in data set [2] (single p.o. dose 1 mg/kg PD 0325901+100 mg/kg GDC-0941), 3196±183^h µM.min; in data set [2] (single p.o. dose 10 mg/kg GDC-0941 alone) it was 364±130^g µM.min; in data set [2] (setting [6]) it was 124±51^g,j µM.min; in data set [2] (single p.o. dose 10 mg/kg PD 0325901+100 mg/kg GDC-0941), 2649±861^i µM.min; in data set [2] (single p.o. dose 100 mg/kg GDC-0941 alone), 5422±962^h,i µM.min. Also, in data set [3] (0.25–24 hours after single p.o. dose, 100 mg/kg GDC-0941 alone or with 1 mg/kg PD 0325901 (combination compared to single agent MEK inhibitor)), the “phosphorylation of ERK1/2 in tumour” value is reported as “reduction”. In the data set on phospho-4EBP1 (Thr37/46), the “phosphorylation of 4EBP1 in tumour” value was “reduction”. For the same compound, the “phosphorylation of S6 in tumour” value in data set [4] is listed as “reduction”. In addition, the “phosphorylation of AKT in tumour” value with phospho-Akt (Ser473) is listed as “reduction”. Further, in the data set with HCT116 cells, the 50% growth inhibitory concentration (GI50) is 1080 nM. The “Time to RTV3, Mean ± SD” value in data set [5] was found to be 15 ± 4 days. In data set [5], the “Time to RTV3, Median ± IR” value stood at 16 ± 5 days. Moreover, the “Time to RTV4, Mean ± SD” value in data set [5] worked out at 19 ± 5 days. Moreover, the “Time to RTV4, Median ± IR” value in data set [5] was determined as 18 ± 4 days.
`O=C(NOC[C@H](O)CO)c1ccc(F)c(F)c1Nc1ccc(I)cc1F` [PD 0325901]: in data set [1], the “decrease in tumour [18F]-FLT uptake (SUV AUC) after 2 days versus baseline” value is given as “no significant difference”. The “increase in plasma AUC of PD 0325901 following concomitant dosing with GDC-0941” value in data set [2] (1 or 10 mg/kg PD 0325901 alone versus with GDC-0941) is on record as 2–3 fold. Moreover, the “increase in plasma AUC with 10-fold increment in dose” value in data set [2] (PD 0325901 10 versus 1 mg/kg) was 15 fold. In addition, the “tumour tissue level (undetectable, limit of detection)” value in data set [2] (all time points after 1 mg/kg PD 0325901, per g of tumour material) is less than 0.4 nmol/g. For the same compound, the concentration at 24 h in data set [2] (mouse, plasma, oral, at 24 hours after 1 mg/kg PD 0325901, read-out: plasma level (undetectable, limit of detection)) is less than 100 nM. Further, the AUC in data set [2] (mouse, plasma, 1 mg/kg, single p.o. dose 1 mg/kg PD 0325901 alone, read-out: PD 0325901 AUC Plasma (converted)) was 1.38 µM·h; in data set [2] (mouse, plasma, 10 mg/kg, single p.o. dose 10 mg/kg PD 0325901+10 mg/kg GDC-0941, read-out: PD 0325901 AUC Plasma (converted)), 40 µM·h; in data set [2] (mouse, plasma, 10 mg/kg, single p.o. dose 10 mg/kg PD 0325901 alone, read-out: PD 0325901 AUC Plasma (converted)) it was 21.6 µM·h; in data set [2] (mouse, plasma, single p.o. dose 1 mg/kg PD 0325901+10 mg/kg GDC-0941, read-out: PD 0325901 AUC Plasma (converted)), 2.73 µM·h; in data set [2] (mouse, plasma, single p.o. dose 1 mg/kg PD 0325901+100 mg/kg GDC-0941, read-out: PD 0325901 AUC Plasma (converted)), 3.15 µM·h; in data set [2] (mouse, plasma, single p.o. dose 10 mg/kg PD 0325901+100 mg/kg GDC-0941, read-out: PD 0325901 AUC Plasma (converted)), 54.1 µM·h. For the same compound, the “PD 0325901 AUC Tumour” value in data set [2] (setting [6]) is 399±72^d,f µM.min; in data set [2] (single p.o. dose 10 mg/kg PD 0325901 alone) it was 1082±232^d,e µM.min. For the same compound, the “phosphorylation of ERK1/2 in tumour” value in data set [3] (3 and 6 hours after single p.o. dose of 1 mg/kg PD 0325901) is on record as “completely ablate”; in data set [3] (1 hour after single p.o. dose of 1 mg/kg PD 0325901), “reduce”. Further, the “phosphorylation of 4EBP1 in tumour” value in the data set with phospho-4EBP1 (Thr37/46) is “no marked effect”. For the same compound, in data set [4], the “phosphorylation of S6 in tumour” value was “no marked effect”. For the same compound, the “phosphorylation of AKT in tumour” value with phospho-Akt (Ser473) is “no marked effect”. In addition, the GI50 in the data set on HCT116 cells was 21 nM. For the same compound, in data set [5], the “Time to RTV3, Mean ± SD” value stood at 19 ± 7 days. Moreover, the “Time to RTV3, Median ± IR” value in data set [5] came out at 18 ± 12 days. Further, in data set [5], the “Time to RTV4, Mean ± SD” value turned out to be 23 ± 8 days. Also, the “Time to RTV4, Median ± IR” value in data set [5] worked out at 21 ± 11 days.
